Results as given in US7507729B2, “Substituted imidazo-[1,5-a][1,2,4]triazolo[1,5-d][1,4] benzodiazepine derivatives” (priority 2005, dated 2009).

Experiments:
[1] = molecular target: T1, GABA A receptor α5β3γ2 (hα5) (Homo sapiens, UniProt P18507+P31644); experiment: [3H]flumazenil competition binding, membranes of HEK293 cells expressing human GABA A α5β3γ2; details: [3H]flumazenil 0.5 nM, 1 hour at 4° C., means of two determinations; read-out: Ki[nM] hα5
T1 construct: expressed in transfected cells; host or cells: HEK293, transiently transfected; membranes
Description: (§1) The affinity of compounds at GABA A receptor subtypes was measured by competition for [^3H]flumazenil (85 Ci/mmol; Roche) binding to HEK293 cells expressing rat (stably transfected) or human (transiently transfected) receptors of composition α1β3γ2, α2β3γ2, α3β3γ2 and α5β3γ2.
(§2) Cell pellets were suspended in Krebs-tris buffer (4.8 mM KCl, 1.2 mM CaCl2, 1.2 mM MgCl2, 120 mM NaCl, 15 mM Tris; pH 7.5; binding assay buffer), homogenized by polytron for ca. 20 sec on ice and centrifuged for 60 min at 4° C. (50000 g; Sorvall, rotor: SM24=20000 rpm). The cell pellets were resuspended in Krebs-tris buffer and homogenized by polytron for ca. 15 sec on ice. Protein was measured (Bradford method, Bio-Rad) and aliquots of 1 mL were prepared and stored at −80° C.
(§3) Radioligand binding assays were carried out in a volume of 200 μL (96-well plates) which contained 100 μL of cell membranes, [^3H]flumazenil at a concentration of 1 nM for α1, α2, α3 subunits and 0.5 nM for α5 subunits and the test compound in the range of 10^−10-3×10^−6 M.
(§4) Nonspecific binding was defined by 10^−5 M diazepam and typically represented less than 5% of the total binding. Assays were incubated to equilibrium for 1 hour at 4° C. and harvested onto GF/C uni-filters (Packard) by filtration using a Packard harvester and washing with ice-cold wash buffer (50 mM Tris; pH 7.5). After drying, filter-retained radioactivity was detected by liquid scintillation counting. Ki values were calculated using Excel-Fit (Microsoft) and are the means of two determinations.

[2] = molecular target: T2, GABA A receptor α1β3γ2 (hα1) (Homo sapiens, UniProt P14867+P18507); experiment: [3H]flumazenil competition binding, membranes of HEK293 cells expressing human GABA A α1β3γ2; details: [3H]flumazenil 1 nM, 1 hour at 4° C., means of two determinations; read-out: Ki[nM] hα1
T2 construct: expressed in transfected cells; host or cells: HEK293, transiently transfected; membranes
Description: as §1, §2, §3, §4

OC(c1cccnc1)c1nc2n(n1)Cc1c(Cl)ncn1-c1ccc(Br)cc1-2 (centres unmarked) [Example 58, 3-Bromo-10-chloro-6-(hydroxy-pyridin-3-yl-methyl)-9H-imidazo[1,5-a][1,2,4]triazolo[1,5-d][1,4]benzodiazepine]
Ki [1]: 0.7 nM
Ki [2]: 69.4 nM
